Data reported in BindingDB's records for patent US11547697 (Millennium Pharmaceuticals, 2023).

Key:
Assay in all cases: Inhibition Assay of PI3K
[1] = biological target: Phosphatidylinositol 4,5-bisphosphate 3-kinase catalytic subunit alpha isoform (Homo sapiens, UniProt P42336)
Experimental: (§1) An exemplary system is PI 3-Kinase (human) HTRF Assay from Upstate. […] Briefly, the assay is a time resolved FRET assay that indirectly measures PIP3 product formed by the activity of a PI3-K. The kinase reaction is performed in a microtitre plate (e.g., a 384 well microtitre plate). The total reaction volume is approximately 20 ul per well. In the first step, each well receives 2 ul of test compound in 20% dimethylsulphoxide resulting in a 2% DMSO final concentration. Next, approximately 14.5 ul of a kinase/PIP2 mixture (diluted in 1× reaction buffer) is added per well for a final concentration of 0.25-0.3 ug/ml kinase and 10 μM PIP2. The plate is sealed and incubated for 15 minutes at room temperature. To start the reaction, 3.5 ul of ATP (diluted in 1× reaction buffer) is added per well for a final concentration of 10 μM ATP. The plate is sealed and incubated for 1 hour at room temperature. The reaction is stopped by adding 5 ul of Stop Solution per well and then 5 ul of Detection Mix is added per well. The plate is sealed, incubated for 1 hour at room temperature, and then read on an appropriate plate reader.

[2] = biological target: Phosphatidylinositol 4,5-bisphosphate 3-kinase catalytic subunit beta isoform (Homo sapiens, UniProt P42338)
Experimental: as §1

[3] = biological target: T1, Phosphatidylinositol 4,5-bisphosphate 3-kinase catalytic subunit delta isoform (Homo sapiens, UniProt O00329)
T1 sequence (O00329 whole entry): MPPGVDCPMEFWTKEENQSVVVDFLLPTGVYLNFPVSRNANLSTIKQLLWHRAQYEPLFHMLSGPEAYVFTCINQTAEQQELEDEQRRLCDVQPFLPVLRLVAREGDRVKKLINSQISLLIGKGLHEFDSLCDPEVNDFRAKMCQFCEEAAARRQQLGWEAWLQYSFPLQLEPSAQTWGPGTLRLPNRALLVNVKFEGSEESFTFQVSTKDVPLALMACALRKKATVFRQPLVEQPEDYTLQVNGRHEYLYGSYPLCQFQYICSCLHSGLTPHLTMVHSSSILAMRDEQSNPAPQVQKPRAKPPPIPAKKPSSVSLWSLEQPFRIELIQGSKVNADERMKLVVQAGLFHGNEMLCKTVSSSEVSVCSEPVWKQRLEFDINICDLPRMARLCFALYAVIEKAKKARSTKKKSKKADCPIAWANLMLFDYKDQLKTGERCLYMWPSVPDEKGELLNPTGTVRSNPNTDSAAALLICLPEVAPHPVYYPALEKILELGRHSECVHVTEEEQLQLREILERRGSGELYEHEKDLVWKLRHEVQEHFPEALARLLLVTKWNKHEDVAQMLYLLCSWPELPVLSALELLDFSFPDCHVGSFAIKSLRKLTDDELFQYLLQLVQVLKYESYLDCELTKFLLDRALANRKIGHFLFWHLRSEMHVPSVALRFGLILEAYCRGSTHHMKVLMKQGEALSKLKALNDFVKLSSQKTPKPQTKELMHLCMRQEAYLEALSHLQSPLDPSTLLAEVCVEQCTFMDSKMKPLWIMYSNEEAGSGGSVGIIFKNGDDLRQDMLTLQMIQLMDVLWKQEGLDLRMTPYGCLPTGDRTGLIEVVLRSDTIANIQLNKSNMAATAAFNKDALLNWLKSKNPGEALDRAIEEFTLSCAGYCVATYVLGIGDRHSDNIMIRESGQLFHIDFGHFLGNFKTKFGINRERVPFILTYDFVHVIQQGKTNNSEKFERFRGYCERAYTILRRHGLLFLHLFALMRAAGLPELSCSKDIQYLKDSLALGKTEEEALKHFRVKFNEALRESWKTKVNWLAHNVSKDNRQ
Experimental: as §1

[4] = biological target: Phosphatidylinositol 4,5-bisphosphate 3-kinase catalytic subunit gamma isoform (Homo sapiens, UniProt P48736)
Experimental: as §1

Measured: IC50

Chain of Phosphatidylinositol 4,5-bisphosphate 3-kinase catalytic subunit alpha isoform (P42336 whole entry, canonical isoform): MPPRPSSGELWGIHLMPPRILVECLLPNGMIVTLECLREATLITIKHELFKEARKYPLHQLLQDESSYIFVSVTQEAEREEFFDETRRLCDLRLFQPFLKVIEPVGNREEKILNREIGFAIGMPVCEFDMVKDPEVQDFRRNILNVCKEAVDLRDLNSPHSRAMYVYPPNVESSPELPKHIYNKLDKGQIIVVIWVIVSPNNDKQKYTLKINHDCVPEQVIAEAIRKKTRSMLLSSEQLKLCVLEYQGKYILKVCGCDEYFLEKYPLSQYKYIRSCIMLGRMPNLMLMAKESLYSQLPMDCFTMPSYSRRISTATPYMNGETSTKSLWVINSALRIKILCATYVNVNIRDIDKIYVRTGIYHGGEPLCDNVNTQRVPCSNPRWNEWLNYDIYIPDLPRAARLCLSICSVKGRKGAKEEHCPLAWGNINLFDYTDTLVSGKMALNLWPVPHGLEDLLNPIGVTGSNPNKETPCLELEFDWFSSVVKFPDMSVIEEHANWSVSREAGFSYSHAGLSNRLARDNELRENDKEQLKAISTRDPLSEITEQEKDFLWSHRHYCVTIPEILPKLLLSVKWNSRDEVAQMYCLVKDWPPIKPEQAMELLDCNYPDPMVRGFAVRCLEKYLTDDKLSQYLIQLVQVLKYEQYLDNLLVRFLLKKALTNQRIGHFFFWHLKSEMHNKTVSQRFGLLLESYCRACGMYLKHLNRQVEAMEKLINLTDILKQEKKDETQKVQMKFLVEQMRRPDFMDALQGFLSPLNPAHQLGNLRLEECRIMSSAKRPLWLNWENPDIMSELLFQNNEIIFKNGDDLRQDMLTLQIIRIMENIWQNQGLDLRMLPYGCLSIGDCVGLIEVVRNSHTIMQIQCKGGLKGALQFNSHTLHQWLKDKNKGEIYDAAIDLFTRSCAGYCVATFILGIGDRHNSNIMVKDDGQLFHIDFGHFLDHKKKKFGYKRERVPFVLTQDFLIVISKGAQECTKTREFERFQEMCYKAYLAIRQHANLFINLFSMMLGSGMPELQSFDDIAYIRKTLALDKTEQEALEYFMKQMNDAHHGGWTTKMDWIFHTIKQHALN
Chain of Phosphatidylinositol 4,5-bisphosphate 3-kinase catalytic subunit beta isoform (P42338 whole entry, canonical isoform): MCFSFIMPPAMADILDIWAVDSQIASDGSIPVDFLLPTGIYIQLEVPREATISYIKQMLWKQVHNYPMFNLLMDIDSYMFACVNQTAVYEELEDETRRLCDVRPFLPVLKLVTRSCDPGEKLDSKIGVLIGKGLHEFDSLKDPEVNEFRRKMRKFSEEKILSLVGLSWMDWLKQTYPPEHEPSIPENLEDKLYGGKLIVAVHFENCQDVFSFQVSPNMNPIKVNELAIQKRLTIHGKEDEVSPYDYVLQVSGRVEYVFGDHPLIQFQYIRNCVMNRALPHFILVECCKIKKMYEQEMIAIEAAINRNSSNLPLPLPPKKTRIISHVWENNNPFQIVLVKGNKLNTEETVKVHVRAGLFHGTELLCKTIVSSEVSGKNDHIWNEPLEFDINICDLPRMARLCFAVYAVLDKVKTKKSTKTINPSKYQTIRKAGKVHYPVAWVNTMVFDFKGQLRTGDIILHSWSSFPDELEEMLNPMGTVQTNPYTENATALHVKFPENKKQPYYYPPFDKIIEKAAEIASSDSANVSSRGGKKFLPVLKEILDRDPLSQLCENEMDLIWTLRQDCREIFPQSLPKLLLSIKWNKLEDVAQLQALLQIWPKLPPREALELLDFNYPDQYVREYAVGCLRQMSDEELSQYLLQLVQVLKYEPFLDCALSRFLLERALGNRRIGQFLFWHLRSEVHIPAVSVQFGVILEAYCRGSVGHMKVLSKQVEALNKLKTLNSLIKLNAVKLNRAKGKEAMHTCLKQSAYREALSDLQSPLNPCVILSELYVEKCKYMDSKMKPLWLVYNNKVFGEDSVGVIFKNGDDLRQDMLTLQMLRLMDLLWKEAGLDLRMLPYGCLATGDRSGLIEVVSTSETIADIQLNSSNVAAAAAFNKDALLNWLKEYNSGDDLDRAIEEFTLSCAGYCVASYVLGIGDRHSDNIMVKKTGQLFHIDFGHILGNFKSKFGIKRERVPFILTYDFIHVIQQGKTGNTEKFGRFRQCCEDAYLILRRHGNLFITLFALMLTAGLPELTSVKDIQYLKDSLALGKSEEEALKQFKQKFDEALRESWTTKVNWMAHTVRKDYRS
Chain of Phosphatidylinositol 4,5-bisphosphate 3-kinase catalytic subunit gamma isoform (P48736 whole entry, canonical isoform): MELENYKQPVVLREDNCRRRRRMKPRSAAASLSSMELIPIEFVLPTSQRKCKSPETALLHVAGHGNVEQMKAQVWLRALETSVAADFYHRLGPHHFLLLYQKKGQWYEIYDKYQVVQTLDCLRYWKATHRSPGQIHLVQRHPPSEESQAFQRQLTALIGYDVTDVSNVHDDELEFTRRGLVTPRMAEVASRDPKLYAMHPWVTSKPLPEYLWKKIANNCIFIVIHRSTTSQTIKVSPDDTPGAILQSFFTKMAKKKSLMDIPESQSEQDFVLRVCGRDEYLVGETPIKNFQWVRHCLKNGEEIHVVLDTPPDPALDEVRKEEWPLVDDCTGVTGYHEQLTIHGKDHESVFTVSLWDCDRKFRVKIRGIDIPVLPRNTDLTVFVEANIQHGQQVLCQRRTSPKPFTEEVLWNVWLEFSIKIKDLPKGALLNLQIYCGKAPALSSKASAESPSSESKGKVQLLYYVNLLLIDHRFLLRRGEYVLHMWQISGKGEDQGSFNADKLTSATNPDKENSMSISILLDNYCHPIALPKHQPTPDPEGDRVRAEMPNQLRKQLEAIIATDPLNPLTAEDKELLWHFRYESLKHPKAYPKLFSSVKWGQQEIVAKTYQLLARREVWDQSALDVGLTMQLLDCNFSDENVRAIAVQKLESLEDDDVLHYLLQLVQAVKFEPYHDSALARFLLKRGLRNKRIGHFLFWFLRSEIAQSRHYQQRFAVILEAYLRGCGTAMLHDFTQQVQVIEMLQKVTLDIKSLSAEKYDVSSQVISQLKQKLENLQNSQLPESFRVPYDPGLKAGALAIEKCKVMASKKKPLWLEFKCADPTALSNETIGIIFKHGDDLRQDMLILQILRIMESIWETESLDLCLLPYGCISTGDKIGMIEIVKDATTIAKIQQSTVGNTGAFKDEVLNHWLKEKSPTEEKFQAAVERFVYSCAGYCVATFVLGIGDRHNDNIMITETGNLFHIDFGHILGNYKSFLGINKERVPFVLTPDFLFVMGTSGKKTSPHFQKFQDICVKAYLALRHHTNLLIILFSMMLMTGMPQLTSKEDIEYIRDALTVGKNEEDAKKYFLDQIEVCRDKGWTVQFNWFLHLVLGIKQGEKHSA

Nc1noc2c(-c3ccc4ncc(C(=O)N5CCOCC5)n4c3)cccc12 [US11547697, Compound 491]
> 10 µM: all assays above

O=C(c1cnc2ccc(-c3ccc4oc(Nc5ccccc5)nc4c3)cn12)N1CCOCC1 [US11547697, Compound 407]
> 10 µM: [1] | [3] | [4]

Nc1nc2cc(-c3cn4c(C(=O)N5CCOCC5)cnc4cn3)ccc2o1 [US11547697, Compound 122]
> 10 µM: all assays above

CC(=O)Nc1nc2cc(-c3ccc4oc(N)nc4c3)ccc2o1 [US11547697, Compound 244]
> 10 µM: all assays above

Cc1nc2ccc(-c3ccc4oc(N)nc4c3)cn2c1C(=O)N1CCN(C)CC1 [US11547697, Compound 91]
> 10 µM: all assays above

Cc1c(-c2ccc3oc(N)nc3c2)ccc2ncc(C(=O)N3CCOCC3)n12 [US11547697, Compound 349]
> 10 µM: all assays above

O=C(c1cnc2ccc(-c3ccc4c(Nc5ccccc5)noc4c3)cn12)N1CCOCC1 [US11547697, Compound 509]
> 10 µM: all assays above

CS(=O)(=O)Nc1nc2cc(-c3ccc4ncc(C(=O)N5CCOCC5)n4c3)ccc2o1 [US11547697, Compound 405]
> 10 µM: all assays above

Nc1nc2cc(-c3ccc4[nH]nc(N)c4c3)ccc2o1 [US11547697, Compound 427]
> 10 µM: all assays above

C[C@H]1CN(c2cnc3ccc(-c4cccc5c(N)noc45)cc3n2)CCN1 [US11547697, Compound 363]
> 10 µM: all assays above

Cc1cc2oc(N)nc2cc1-c1ccc2ncc(C(=O)N3CCOCC3)n2c1 [US11547697, Compound 352]
> 10 µM: all assays above

Nc1nc2cc(-c3cccc4[nH]nc(N)c34)ccc2o1 [US11547697, Compound 236]
> 10 µM: [1] | [2] | [4]

C[C@H]1CN(c2cnc3ccc(-c4cccc5nc(N)oc45)cc3n2)CCN1 [US11547697, Compound 310]
> 10 µM: all assays above

Cc1nc2ccc(-c3ccc4oc(N)nc4c3)cn2c1C(=O)N1CCOCC1 [US11547697, Compound 92]
> 10 µM: all assays above

Nc1nc2cc(-c3nc4cc(-c5cccnc5)cnc4s3)ccc2o1 [US11547697, Compound 402]
> 10 µM: all assays above

CNS(=O)(=O)c1cccc(-c2ccc3ncc(C(=O)N4CCOCC4)n3c2)c1 [US11547697, Compound 442]
> 10 µM: all assays above

Nc1cn2cc(-c3ccc4nc(N)oc4c3)ccc2n1 [US11547697, Compound 247]
> 10 µM: [1] | [3]

C[C@H]1CN(c2cnc3cccc(-c4ccc5nc(N)oc5c4)c3n2)CCN1 [US11547697, Compound 343]
> 10 µM: [1] | [3] | [4]

Nc1nc2cc(-c3ccc4nc(N)c(N5CC(N6CCOCC6)C5)nc4c3)ccc2o1 [US11547697, Compound 404]
> 10 µM: all assays above

CC(=O)Nc1nc2cc(-c3ccc4oc(N)nc4c3)ccc2s1 [US11547697, Compound 250]
> 10 µM: [1] | [2] | [3]

Nc1nsc2ccc(-c3ccc4nccc(-c5ccncc5)c4c3)cc12 [US11547697, Compound 12]
> 10 µM: all assays above

Nc1nc2cc(-c3ccc4nnc(C(=O)N5CCOCC5)n4c3)ccc2o1 [US11547697, Compound 282]
> 10 µM: all assays above

Nc1n[nH]c2c(-c3ccc4ncc(C(=O)N5CCOCC5)n4c3)cccc12 [US11547697, Compound 490]
> 10 µM: all assays above

CN1CCC(Nc2nc3cc(-c4ccc5ncc(C(=O)N6CCOCC6)n5c4)ccc3o2)CC1 [US11547697, Compound 408]
> 10 µM: all assays above

COc1ccc(-c2ccc3ncc(C(=O)N4CCOCC4)n3c2)cc1NS(C)(=O)=O [US11547697, Compound 456]
> 10 µM: all assays above

Nc1nc2cc(-c3ccc4ncn(C(=O)N5CCOCC5)c4c3)ccc2o1 [US11547697, Compound 317]
> 10 µM: all assays above

Cc1c(-c2ccc3ncc(C(=O)N4CCOCC4)n3c2)ccc2oc(N)nc12 [US11547697, Compound 369]
> 10 µM: all assays above

CC(=O)Nc1nc2ccc(-c3nc(N4CCOCC4)c4sc(CN5CCN(S(C)(=O)=O)CC5)cc4n3)cc2s1 [US11547697, Compound 130]
> 10 µM: all assays above

Nc1ncc(-c2ccc3oc(N)nc3c2)cn1 [US11547697, Compound 233]
> 10 µM: [1] | [2] | [3]

O=C(c1cnc2ccc(-c3cccc(S(=O)(=O)Nc4cc(F)ccc4F)c3)cn12)N1CCOCC1 [US11547697, Compound 441]
> 10 µM: all assays above

CCN1CCN(c2cnc3ccc(-c4ccc5oc(N)nc5c4)cc3n2)C(=O)C1 [US11547697, Compound 391]
> 10 µM: [2] | [3] | [4]

O=C(c1cnc2ccc(-c3cncc(S(=O)(=O)Nc4ccccc4)c3)cn12)N1CCOCC1 [US11547697, Compound 447]
> 10 µM: [2] | [3] | [4]

NC(=O)[C@@H]1CCCN1c1cnc2ccc(-c3ccc4oc(N)nc4c3)cc2n1 [US11547697, Compound 257]
> 10 µM: [2] | [3] | [4]

Nc1nc2cc(-c3ccc4ncn(CCCN5CCOCC5)c(=O)c4c3)ccc2o1 [US11547697, Compound 290]
> 10 µM: [2] | [3] | [4]

Nc1nc2cc(-c3ccc4ncc(-c5ccccc5)nc4c3)ccc2o1 [US11547697, Compound 180]
> 10 µM: [2] | [3] | [4]

Nc1nc2cccc(-c3ccc4ncc(C(=O)N5CCOCC5)n4c3)c2s1 [US11547697, Compound 485]
> 10 µM: [2] | [3] | [4]

O=C(c1cnc2ccc(-c3cnc(Cl)c4[nH]ncc34)cn12)N1CCOCC1 [US11547697, Compound 516]
> 10 µM: [2] | [3] | [4]

Nc1nc2cc(-c3ccc4ncc(N5CCOCC5)n4c3)ccc2o1 [US11547697, Compound 53]
> 10 µM: [2] | [3] | [4]

CCN(CC)CCn1cnc2ccc(-c3ccc4oc(N)nc4c3)cc2c1=O [US11547697, Compound 224]
> 10 µM: [2] | [3] | [4]

CN1CCN(c2nc3cc(-c4ccc5oc(N)nc5c4)ccc3c(=O)n2C)CC1 [US11547697, Compound 79]
> 10 µM: [2] | [3] | [4]

Nc1nc2cc(-c3ccc4ncc(C(=O)N5CCOCC5)n4c3)c(Cl)cc2o1 [US11547697, Compound 370]
> 10 µM: [2] | [3] | [4]

Nc1nc2cc(-c3ccc4ncn(C5CCCC5)c(=O)c4c3)ccc2o1 [US11547697, Compound 256]
> 10 µM: [2] | [3] | [4]
